According to US20140194321A1 (CELLOMICS, INC., priority 2013, published 2014):
Where two headings read alike, the source gives them in different places.

What was measured:
[1] = tested on: U937 cells; assay: High-content imaging skin sensitizing prediction assay: U937 cells treated 24 h with a range of compound concentrations, CD54 intensity per cell and cell number dose response curves qualified, decision matrix applied; settings: for CD54/Cell Result: qualified dose response curve (increasing/flat/decreasing) of CD54 intensity per cell; for CD54/Cell Result / Cell Number Result: U937 cells, 24 hours compound treatment, range of concentrations; for Cell Number Result: qualified dose response curve (increasing/flat/decreasing) of number of cells; for Outcome: skin sensitivity prediction from decision matrix of FIG. 8 (CD54/cell vs cell number), Toxic* = at concentrations tested
Excerpt: (§1) In step 160, the data corresponding to the different compound concentrations is normalized. In one embodiment, measurements generated from the vehicle-treated cell image analysis can be used. […] As such, a normalization of the data obtained from the compound-treated cells can be determined by subtracting the baseline response of the vehicle-treated cells from the measurements of the responses of the compound-treated cells. Measured values of the compound-treated cells that are below baseline levels can be notated as lacking a response, and can be ignored in further analysis, if desired.
(§2) This can be done by calculating a mean value for the measured target at each concentration level, taking into account all of the samples corresponding to the particular concentration level.
(§3) For example, mean values for gross markers can be computed for the number of cells using either the number of cell bodies or the number of nuclei detected. For specific markers, mean values can be computed for each of the features (e.g., CD54 (ICAM-1) intensity). […] Other mean values can also be used. In addition, other representative values can also be used for each concentration of the compound, such as a highest measured value, a lowest measured value, or other representative values.
(§4) This can be done by plotting on a graph the average value of the target for each concentration. […] Using the plotted points, a simple curve 170 can be generated, as shown. This simple curve represents the dose response curve.
(§5) In one embodiment, qualifying the dose response curve can be accomplished by categorizing the curve as “increasing,” “decreasing,” or “flat.”
(§6) The predefined range can be determined using a standard deviation value, a percentage of total range, or a percentage of highest value. […] In the experimental results, discussed below, the predefined range was determined using a percentage of the highest value for the curve.
(§7) In step 170, a decision matrix is applied to the qualified dose response of one or more of the measured parameters to predict skin sensitization. The qualified dose response of any of the measured cellular targets can be used. For example, the cellular targets used in the decision matrix can be selected from the gross markers, specific markers and/or the functional response of the cells. Using the selected properties, a decision matrix can be constructed based upon the expected behavior of the cell type in response to the compound used. The dose response curve behavior (e.g., “increasing,” “flat,” or “decreasing”) of the measured cellular properties can then be used to determine the prediction of sensitizing capability of the compound. In some embodiments, the decision matrix can also be used to determine if the compound is toxic.
(§8) To determine a predicted skin sensitivity of a tested compound, one simply finds the matrix location corresponding to both of the qualified dose responses determined for the tested compound, and the entry within that matrix location identifies the predicted skin sensitivity of the compound.
(§9) The compounds for which skin sensitivity is desired can then be introduced to the immune effector cells. For each concentration level of each compound, 100 μl of the 2× concentrated compound solution can be added to the corresponding wells. Similarly, 100 μl of vehicle solution can be added to the vehicle control wells and the 2× solution of the negative and positive controls can be added to the negative and positive control wells, respectively. The plate can then be incubated for 24 hours at 37° C. in 5% CO2.
(§10) After incubation, the plate can be centrifuged for 5 minutes at 125×g. The media can then be aspirated from the wells after which 50 μl of pre-warmed (e.g., to 37° C.) 4% paraformaldehyde can be added to each well.

[2] = tested on: U937 cells
Excerpt: as §1, §2, §3, §4, §5, §6, §7, §8, §9, §10

Molecule	CD54/Cell Result [1]	Cell Number Result [1]	Outcome [1]	Outcome [2]
Nc1ccccc1O [2-aminophenol]	Increase	Increase	Sensitizer	
N#CCCC(Br)(C#N)CBr (centres unmarked) [2bromo-2bromomethylglutaronitrile]	Decrease		Toxic*	
C=CC(=O)OCCO [2hydroxyethylacrylate]	Increase	Increase	Sensitizer	
CC(C)=O [Acetone]	Increase	Decrease	Sensitizer	
O=Cc1ccccc1 [Benzylaldehyde]	Increase	Increase	Sensitizer	
CN(C)C=O [DMF]	Increase	Increase		Sensitizer
C[S+](C)[O-] [DMSO]	Decrease	Increase		Non-sensitizer
CCOC(=O)c1ccccc1C(=O)OCC [Diethyl Phthalate]	Decrease	Decrease	Toxic*	
CCO [Ethanol]	Decrease	Increase	Non-sensitizer	
CCOc1cc(C=O)ccc1O [Ethyl Vanillin]	Decrease	Decrease		Toxic*
CC(C)=CCC/C(C)=C/CO [Geraniol]	Increase	Increase	Sensitizer	
OCC(O)CO [Glycerol]	Flat		Non-sensitizer	
O=CC=O [Glyoxal]	Increase	Decrease	Sensitizer	
CC(C)O [Isopropanol]	Decrease		Non-sensitizer	
CC(O)C(=O)O (centres unmarked) [Lactic Acid]	Decrease	Decrease	Toxic*	
CCCCCCCC(=O)O [Octanoic Acid]	Increase	Increase	Sensitizer	
NCCNc1ccccc1 [Phenylethylenediamine]	Decrease	Increase	Non-sensitizer	
CC(O)CO (centres unmarked) [Propylene Glycol]	Decrease	Flat	Non-sensitizer	
O=C(O)c1ccccc1O [Salicylic Acid]	Decrease	Decrease	Toxic*	
CCCCCCCCCCCCOS(=O)(=O)[O-].[Na+] [Sodium Lauryl Sulfate]	Increase	Increase	Sensitizer	
CCCCCCCC/C=C\CCCCCCCC(=O)OCCOCC(OCCO)C1OCC(OCCO)C1OCCO (centres unmarked) [Tween 80]	Decrease	Increase	Non-sensitizer	
Butanol	Flat	Increase		
